This note sets out measurements from patent publication US8207160B2, “Tetrahydrobenzazepines and their use in he modulation of the dopamine D3 receptor” (Abbott GmbH & Co. KG, priority 2003, dated 2012).

By Ki is commonly meant the equilibrium dissociation constant of an inhibitor or competing ligand from its target.

Like-named read-outs stand apart in the source and are kept apart here.

The target in experiment [1] is T1, human dopamine D3 receptors (Homo sapiens, UniProt P35462).
T1 construct: expressed in transfected cells; membranes used
T1 sequence (P35462 whole entry): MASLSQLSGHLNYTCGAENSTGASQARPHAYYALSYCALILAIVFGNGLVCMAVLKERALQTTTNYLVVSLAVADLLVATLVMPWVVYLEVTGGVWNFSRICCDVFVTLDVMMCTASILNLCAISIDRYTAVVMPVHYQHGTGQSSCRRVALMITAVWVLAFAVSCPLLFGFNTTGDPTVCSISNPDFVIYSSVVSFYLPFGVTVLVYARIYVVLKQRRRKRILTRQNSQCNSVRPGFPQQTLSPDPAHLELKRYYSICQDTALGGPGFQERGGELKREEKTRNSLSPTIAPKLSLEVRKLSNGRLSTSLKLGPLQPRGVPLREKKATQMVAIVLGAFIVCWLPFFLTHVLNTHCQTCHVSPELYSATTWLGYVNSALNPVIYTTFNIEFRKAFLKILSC
Kind of experiment: Dopamine D3 receptor binding, displacement of [125I]-iodosulpride. The protocol:
(§1) C) Biological Investigations—Receptor-Binding Studies: • The substance to be tested was dissolved either in methanol/Chremophor®) (BASF-AG) or in dimethyl sulfoxide and then diluted with water to the desired concentration.
I. Dopamine D3 Receptor: • The mixture (0.250 ml) was composed of membranes from ˜10^6 HEK-293 cells with stably expressed human dopamine D3 receptors, 0.1 nM [^125I]-iodosulpride and incubation buffer (total binding) or additionally test substance (inhibition plot) or 1 μM spiperone (nonspecific binding). Triplicate assays were carried out. • The incubation buffer contained 50 mM Tris, 120 mM NaCl, 5 mM KCl, 2 mM CaCl2, 2 mM MgCl2 and 0.1% bovine serum albumin, 10 μM quinolone, 0.1% ascorbic acid (prepared freshly each day). The buffer was adjusted to pH 7.4 with HCl.
(§2) III. Measurement and Evaluation: • After incubation at 25° C. for 60 minutes, the mixtures were filtered through Wathman GF/B glass fiber filters under vacuum using a cell harvester. The filters were transferred using a filter transfer system into scintillation vials. After addition of 4 ml of Ultima Gold® (Packard), the samples were shaken for one hour and then the radioactivity was counted in a Beta Counter (Packard, Tricarb 2000 or 2200CA). The cp values were converted into dpm on the basis of a standard quench series with the aid of the program supplied with the instrument. • The inhibition plots were evaluated by iterative nonlinear regression analysis using the Statistical Analysis System (SAS), similar to the “LIGAND” program described by Munson and Rodbard. • The compounds of the invention show very good affinities for the D3 receptor in these assays (<100 nM, frequently <50 nM) and bind selectively to the D3 receptor.

In experiment [2] the target is T2, human dopamine D2L receptors (long isoform) (Homo sapiens, UniProt P14416).
T2 construct: expressed in transfected cells; membranes used
T2 sequence (P14416 whole entry, canonical isoform): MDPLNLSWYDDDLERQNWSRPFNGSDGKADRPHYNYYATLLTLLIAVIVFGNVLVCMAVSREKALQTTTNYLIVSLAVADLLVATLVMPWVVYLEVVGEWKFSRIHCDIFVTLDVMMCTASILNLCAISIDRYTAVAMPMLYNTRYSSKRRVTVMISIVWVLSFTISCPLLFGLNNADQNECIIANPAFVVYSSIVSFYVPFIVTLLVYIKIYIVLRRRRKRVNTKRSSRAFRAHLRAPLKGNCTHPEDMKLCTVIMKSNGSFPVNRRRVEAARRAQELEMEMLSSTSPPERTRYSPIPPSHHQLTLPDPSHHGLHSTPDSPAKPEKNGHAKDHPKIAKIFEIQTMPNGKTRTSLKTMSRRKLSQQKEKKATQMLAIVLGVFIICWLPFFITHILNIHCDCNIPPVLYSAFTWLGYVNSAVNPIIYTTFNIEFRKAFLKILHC
Description: Dopamine D2L receptor binding, displacement of [125I]-iodospiperone. The following applies: Ki(D2L)/Ki(D3); human D2L and D3 receptors in HEK-293 membranes. The protocol:
as §1
II. Dopamine D2L receptor: • The mixture (1 ml) was composed of membranes from ˜10^6 HEK-293 cells with stably expressed human dopamine D2L receptors (long isoform) and 0.01 nM [^125I]-iodospiperone and incubation buffer (total binding) or additionally test substance (inhibition plot) or 1 μM haloperidol (nonspecific binding). Triplicate assays were carried out. • The incubation buffer contained 50 mM Tris, 120 mM NaCl, 5 mM KCl, 2 mM CaCl2, 2 mM MgCl2 and 0.1% bovine serum albumin. The buffer was adjusted to 7.4 with HCl.
as §2
On the technique in general: In a radioligand displacement assay an active substance lowers the binding of a labelled ligand.

[3] abbreviates: membranes from HEK-293 cells with stably expressed human dopamine D3 receptors, 0.1 nM [125I]-iodosulpride, 25° C., 60 minutes, read-out: Ki (D3).

`CCCN1CCc2ccc(NS(=O)(=O)c3ccc(Cl)cc3Cl)cc2CC1.O=C(O)C(F)(F)F` [Example 18, 2,4-Dichloro-N-(3-Propyl-2,3,4,5-Tetrahydro-1H-3-Benzazepin-7-yl)Benzenesulfonamide Trifluoroacetate]: the Ki in experiment [1] (setting [3]) came out at 7.3 nM. The “Selectivity vs. D2L*” value in experiment [2] is recorded as 85.
Consider `CCCN1CCc2ccc(NS(=O)(=O)c3ccc4ccccc4c3)cc2CC1.O=C(O)C(F)(F)F` [Example 17, N-(3-Propyl-2,3,4,5-Tetrahydro-1H-3-Benzazepin-7-yl)Naphthalene-2-Sulfonamide Trifluoroacetate], for which the Ki in experiment [1] (setting [3]) was 4.5 nM. Further, in experiment [2], the “Selectivity vs. D2L*” value amounted to 68.
The like results for `CC(C)c1ccc(S(=O)(=O)Nc2ccc3c(c2)CCN(CCCF)CC3)cc1.Cl` [Example 66, N-[3-(3-Fluoropropyl)-2,3,4,5-Tetrahydro-1H-3-Benzazepin-7-yl]-4-Isopropylbenzenesulfonamide Hydrochloride] were, in that order, 1.2 nM and 146.
As to `C=CCN1CCc2ccc(NS(=O)(=O)c3ccc(C(C)C)cc3)cc2CC1.Cl` [Example 65, N-(3-Allyl-2,3,4,5-Tetrahydro-1H-3-Benzazepin-7-yl)-4-(Isopropyl)Benzenesulfonamide Hydrochloride], the Ki in experiment [1] (setting [3]) was 0.4 nM. In experiment [2], the “Selectivity vs. D2L*” value came to 141.
The like results for `C=CCN1CCc2ccc(NS(=O)(=O)c3ccc(C(F)(F)F)cc3)cc2CC1.Cl` [Example 58, N-(3-Allyl-2,3,4,5-Tetrahydro-1H-3-Benzazepin-7-yl)4-(Trifluoromethyl)Benzenesulfonamide Hydrochloride] were, in that order, 3.4 nM and 84.
The like results for `CCCN1CCc2ccc(NS(=O)(=O)c3ccc(CC)cc3)cc2CC1.Cl` [Example 5, 4-Ethyl-N-(3-Propyl-2,3,4,5-Tetrahydro-1H-3-Benzazepin-7-yl)Benzenesulfonamide Hydrochloride] were, in that order, 1 nM and 368.
In turn, `CCCN1CCc2ccc(NS(=O)(=O)c3ccc(Br)cc3)cc2CC1.O=C(O)C(F)(F)F` [Example 19, 4-Bromo-N-(3-Propyl-2,3,4,5-Tetrahydro-1H-3-Benzazepin-7-yl)Benzene-Sulfonamide Trifluoroacetate] registered a Ki in experiment [1] of 3 nM. In experiment [2], the “Selectivity vs. D2L*” value turned out to be 65.
Turning to `CCCN1CCc2ccc(N(C)S(=O)(=O)c3ccc(C(C)C)cc3)cc2CC1.O=C(O)C(F)(F)F` [Example 31, 4-Isopropyl-N-Methyl-N-(3-Propyl-2,3,4,5-tetrahydro-1H-3-Benzazepin-7-yl)Benzenesulfonamide Trifluoroacetate], in experiment [1] (setting [3]), the Ki is 1 nM. Besides, the “Selectivity vs. D2L*” value in experiment [2] was 63.
As to `CCCN1CCc2ccc(NS(=O)(=O)c3ccc(C(F)(F)F)cc3)cc2CC1.Cl` [Example 6, N-(3-Propyl-2,3,4,5-Tetrahydro-1H-3-Benzazepin-7-yl)-4-(Trifluoromethyl)-Benzenesulfonamide Hydrochloride], in experiment [1] (setting [3]), the Ki came out at 5.8 nM. Further, the “Selectivity vs. D2L*” value in experiment [2] is recorded as 252.
Regarding `CCCN1CCc2ccc(NS(=O)(=O)c3ccc(Cl)s3)cc2CC1.O=C(O)C(F)(F)F` [Example 21, N-(3-Propyl-2,3,4,5-Tetrahydro-1H-3-Benzazepin-7-yl)-5-Chlorothiophene-2-Sulfonamide Trifluoroacetate], the Ki in experiment [1] was found to be 16 nM. Besides, in experiment [2], the “Selectivity vs. D2L*” value is listed as 47.
In the case of `C=Cc1ccc(S(=O)(=O)Nc2ccc3c(c2)CCN(CCC)CC3)cc1.Cl` [Example 4, N-(3-Propyl-2,3,4,5-Tetrahydro-1H-3-Benzazepin-7-yl)-4-Vinylbenzenesulfonamide Hydrochloride], the Ki in experiment [1] (setting [3]) came out at 0.5 nM. The “Selectivity vs. D2L*” value in experiment [2] worked out at 435.
As for `CCCN1CCc2ccc(NS(=O)(=O)c3ccc(Br)cc3C)cc2CC1.O=C(O)C(F)(F)F` [Example 20, 4-Bromo-2-Methyl-N-(3-Propyl-2,3,4,5-Tetrahydro-1H-3-Benzazepin-7-yl)-Benzenesulfonamide Trifluoroacetate], the Ki in experiment [1] (setting [3]) amounted to 7.1 nM. In addition, the “Selectivity vs. D2L*” value in experiment [2] amounted to 85.
`CCCN1CCc2ccc(S(=O)(=O)Nc3ccc(OC(F)(F)F)cc3)cc2CC1.Cl` [Example 35, 3-Propyl-N-[4-(Trifluoromethoxy)Phenyl]-2,3,4,5-Tetrahydro-1H-3-Benzazepine-7-Sulfonamide Hydrochloride]: the Ki in experiment [1] (setting [3]) is 28.2 nM. Further, in experiment [2], the “Selectivity vs. D2L*” value is 40.
Regarding `CCCN1CCc2ccc(NS(=O)(=O)c3ccc(C(C)=O)cc3)cc2CC1` [Example 10, 4-Acetyl-N-(3-Propyl-2,3,4,5-Tetrahydro-1H-3-Benzazepin-7-yl)Benzenesulfonamide], the Ki in experiment [1] (setting [3]) worked out at 16.5 nM. Further, in experiment [2], the “Selectivity vs. D2L*” value was found to be 271.
The like results for `CCCN1CCc2ccc(NS(=O)(=O)c3c(C)cc(C)cc3C)cc2CC1.O=C(O)C(F)(F)F` [Example 12, 2,4,6-Trimethyl-N-(3-Propyl-2,3,4,5-Tetrahydro-1H-3-Benzazepin-7-yl)-Benzenesulfonamide Trifluoroacetate] were, in that order, 7.2 nM and 90.
On the same counts, the results for `CCCN1CCc2ccc(NS(=O)(=O)c3ccc(Cl)cc3)cc2CC1` [Example 3, 4-Chloro-N-(3-Propyl-2,3,4,5-Tetrahydro-1H-3-Benzazepin-7-yl)Benzenesulfonamide] are 4.1 nM and 68.
Take `CCCN1CCc2ccc(NS(=O)(=O)c3ccc(C)cc3)cc2CC1.O=C(O)C(F)(F)F` [Example 11, 4-Methyl-N-(3-Propyl-2,3,4,5-Tetrahydro-1H-3-Benzazepin-7-yl)Benzene Sulfonamide Trifluoroacetate]: the affinity in experiment [1], expressed as Ki, was 4.7 nM. Besides, the “Selectivity vs. D2L*” value in experiment [2] came to 112.
`CCCN1CCc2ccc(NS(=O)(=O)c3ccc(OC(F)(F)F)cc3)cc2CC1` [Example 2, N-(3-Propyl-2,3,4,5-Tetrahydro-1H-3-Benzazepin-7-yl)-4-Trifluoromethoxy-Benzenesulfonamide]: in experiment [1] (setting [3]), the Ki turned out to be 7.1 nM. In experiment [2], the “Selectivity vs. D2L*” value worked out at 99.
For `CC(C)c1ccc(S(=O)(=O)Nc2ccc3c(c2)CCN(C)CC3)cc1.Cl` [Example 56, 4-Isopropyl-N-(3-Methyl-2,3,4,5-Tetrahydro-1H-3-Benzazepin-7-yl)Benzenesulfonamide Hydrochloride], in experiment [1] (setting [3]), the Ki amounted to 1.2 nM. Besides, the “Selectivity vs. D2L*” value in experiment [2] is on record as 66.
For the molecule `CC(C)c1ccc(S(=O)(=O)Nc2ccc3c(c2)CCN(CC2CC2)CC3)cc1.Cl` [Example 57, N-(3-Cyclopropylmethyl-2,3,4,5-Tetrahydro-1H-3-Benzazepin-7-yl)4-Isopropylbenzenesulfonamide Hydrochloride], the Ki in experiment [1] (setting [3]) is 2.1 nM. The “Selectivity vs. D2L*” value in experiment [2] is 115.
Take `CCCN1CCc2ccc(CS(=O)(=O)c3ccc(C(C)C)cc3)cc2CC1` [Example 36, 7-(4-Isopropylbenzenesulfonylmethyl)-3-Propyl-2,3,4,5-Tetrahydro-1H-3-Benzazepine]: the Ki in experiment [1] (setting [3]) was 1 nM. In experiment [2], the “Selectivity vs. D2L*” value turned out to be 446.
The like results for `CCCN1CCc2ccc(NS(=O)(=O)c3ccc(C(C)(C)C)cc3)cc2CC1.Cl` [Example 7, 4-Tert-Butyl-N-(3-Propyl-2,3,4,5-Tetrahydro-1H-3-Benzazepin-7-yl)Benzenesulfonamide Hydrochloride] were, in that order, 4.1 nM and 120.
